Assay [1] addresses NR1/NR2B (Homo sapiens (Human), UniProt Q05586+Q13224). The assay can be described thus: Cell assay: FDSS Ca2+ influx inhibition in HEK293 cells expressing NR1/NR2B.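 Further: Fluo-8 Ca2+ signal read on Hamamatsu FDSS 6000 after glutamate, glycine and Ca2+ challenge following 10 min compound preincubation, end/baseline fluorescence ratio compared with MK801 control.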 Conditions: Binned Activity.
Assay [2] deals with NR1/NR2B (Homo sapiens (Human), UniProt Q13224). The assay is described as above. Conditions: read-out: NR2B NAM IC50.
Chain of NR1/NR2B (Homo sapiens (Human), UniProt Q13224) (Q13224 27-1484, other chains not shown): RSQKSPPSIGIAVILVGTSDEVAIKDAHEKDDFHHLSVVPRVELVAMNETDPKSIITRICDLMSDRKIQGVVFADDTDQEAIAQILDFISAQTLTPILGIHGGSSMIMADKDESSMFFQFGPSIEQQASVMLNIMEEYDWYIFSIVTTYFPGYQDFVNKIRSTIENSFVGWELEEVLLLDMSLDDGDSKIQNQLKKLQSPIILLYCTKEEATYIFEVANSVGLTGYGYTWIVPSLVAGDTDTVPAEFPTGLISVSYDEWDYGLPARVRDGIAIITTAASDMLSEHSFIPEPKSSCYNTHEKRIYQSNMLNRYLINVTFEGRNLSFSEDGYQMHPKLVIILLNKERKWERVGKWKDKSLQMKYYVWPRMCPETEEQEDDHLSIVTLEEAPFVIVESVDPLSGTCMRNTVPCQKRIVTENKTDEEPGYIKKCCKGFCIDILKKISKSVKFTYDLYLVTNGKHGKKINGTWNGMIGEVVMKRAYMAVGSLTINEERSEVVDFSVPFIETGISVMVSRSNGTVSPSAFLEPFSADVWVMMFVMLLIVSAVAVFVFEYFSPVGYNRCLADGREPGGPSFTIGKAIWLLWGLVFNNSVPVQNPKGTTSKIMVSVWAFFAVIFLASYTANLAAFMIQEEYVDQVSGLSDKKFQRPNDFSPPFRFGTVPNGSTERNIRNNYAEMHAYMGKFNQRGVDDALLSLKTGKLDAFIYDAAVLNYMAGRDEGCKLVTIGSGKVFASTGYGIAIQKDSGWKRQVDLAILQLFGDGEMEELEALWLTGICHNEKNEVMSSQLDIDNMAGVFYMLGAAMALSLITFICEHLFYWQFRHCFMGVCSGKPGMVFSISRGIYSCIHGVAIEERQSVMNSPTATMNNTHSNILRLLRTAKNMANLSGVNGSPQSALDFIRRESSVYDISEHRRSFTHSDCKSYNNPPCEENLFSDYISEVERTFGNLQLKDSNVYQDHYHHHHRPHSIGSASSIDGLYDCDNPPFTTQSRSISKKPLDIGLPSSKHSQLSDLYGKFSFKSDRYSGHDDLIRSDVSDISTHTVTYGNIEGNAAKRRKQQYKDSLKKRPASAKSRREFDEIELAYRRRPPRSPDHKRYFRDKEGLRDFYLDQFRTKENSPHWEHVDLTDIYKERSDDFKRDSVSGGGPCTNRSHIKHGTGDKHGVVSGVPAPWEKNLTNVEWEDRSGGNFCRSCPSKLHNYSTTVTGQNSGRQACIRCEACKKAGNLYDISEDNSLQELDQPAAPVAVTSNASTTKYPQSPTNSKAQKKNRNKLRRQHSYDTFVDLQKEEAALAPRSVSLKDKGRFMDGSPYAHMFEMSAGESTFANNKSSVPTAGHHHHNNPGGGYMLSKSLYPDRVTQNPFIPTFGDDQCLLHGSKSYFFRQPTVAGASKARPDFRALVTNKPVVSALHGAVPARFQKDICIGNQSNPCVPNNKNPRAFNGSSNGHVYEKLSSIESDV
Where [3] appears, read: HEK293 cells expressing NR1/NR2B, Ca2+ influx, binned NR2B NAM IC50.
Where [4] appears, read: HEK293 cells expressing NR1/NR2B, Ca2+ influx.

The text below walks through data of patent publication US10052306B2 (LUC THERAPEUTICS, INC., priority 2013, dated 2018).

Read-outs that look alike come from different tables or passages of the source.

Chain of NR1/NR2B (Homo sapiens (Human), UniProt Q05586+Q13224) (Q13224 27-1484, other chains not shown): as above

Turning to `COc1ccc(NC(=O)N2C[C@@H]3C[C@@](O)(c4ccc(C#N)cc4)C[C@@H]3C2)cc1` [Example 2, 5-(4-cyanophenyl)-5-hydroxy-N-(4-methoxyphenyl)-octahydrocyclopenta[c] pyrrole-2-carboxamide], the values for the IC50 at NR1/NR2B [1] (setting [3]) and at NR1/NR2B [2] (setting [4]) were over 10 µM and 10 µM, respectively.
For `Cc1ccccc1[C@]1(O)C[C@H]2CN(C(=O)Nc3ccccc3)C[C@H]2C1` [Example 30, 5-hydroxy-5-(2-methylphenyl)-N-phenyl-octahydrocyclopenta[c] pyrrole-2-carboxamide], the results for the IC50 against NR1/NR2B [1] and on NR1/NR2B [2] were over 10 µM and 10 µM, respectively.
For the compound `O=C(CN1C[C@@H]2C[C@@](O)(Cc3ccc(Cl)cc3)C[C@@H]2C1)c1ccc(O)cn1` [Example 218, 2-((3aR,5r,6aS)-5-(4-chlorobenzyl)-5-hydroxyhexaydrocyclo-penta[c]pyrrol-2(1H)-yl)-1-(5-hydroxypyridin-2-yl)ethanone], the IC50 (commonly the concentration at which inhibition is half-maximal) against NR1/NR2B [1] (setting [3]) is 0.1 to 1 µM; on NR1/NR2B [2] (setting [4]), 0.374 µM.
With `O=C(Nc1cccc(C(F)(F)F)c1)N1C[C@@H]2C[C@@](O)(c3ccccc3)C[C@@H]2C1` [Example 5, 5-hydroxy-5-phenyl-N-[3-(trifluoromethyl)phenyl]-octahydrocyclopenta[c] pyrrole-2-carboxamide], the IC50 on NR1/NR2B [1] (setting [3]) was over 10 µM; on NR1/NR2B [2] (setting [4]), 10 µM.
The like results for `CC(=O)Nc1ccc(C(=O)CN2C[C@@H]3C[C@@](O)(Cc4ccccc4)C[C@@H]3C2)cn1` [Example 282, N-(5-(2-((3aR,5r,6aS)-5-benzyl-5-hydroxyhexahydrocyclo-penta[c]pyrrol-2(1H)-yl)acetyl)pyridin-2-yl)acetamide] were, in that order, over 10 µM and 10 µM.
Turning to `COc1ccc(C[C@]2(O)C[C@H]3CN(CC(=O)c4ccc(O)cn4)C[C@H]3C2)cc1` [Example 192, 2-[(3aR,5R,6aS)-5-hydroxy-5-[(4-methoxyphenyl)methyl]-octahydrocyclopenta[c]pyrrol-2-yl]-1-(5-hydroxypyridin-2-yl)ethan-1-one], the IC50 was 1 to 10 µM against NR1/NR2B [1] (setting [3]) and 7.61 µM at NR1/NR2B [2] (setting [4]).
The like results for `O=C(CN1C[C@@H]2C[C@@](O)(Cc3ccccc3)C[C@@H]2C1)c1cccc(-c2ccccc2)c1` [Example 268, 1-([1,1′-biphenyl]-3-yl)-2-((3aR,5r,6aS)-5-benzyl-5-hydroxyhexahydrocyclo-penta[c]pyrrol-2(1H)-yl)ethanone] were, in that order, over 10 µM and 10 µM.
The like results for `Oc1ccc([C@@H](O)CN2C[C@@H]3C[C@](O)(Cc4ccccc4)C[C@@H]3C2)cc1` [Example 2291, (3aR,5R,6aS)-5-benzyl-2-((R)-2-hydroxy-2-(4-hydroxyphenyl)ethyl) octahydrocyclopenta [c]pyrrol-5-ol] were, in that order, 0.1 to 1 µM and 0.332 µM.
The like results for `Cc1cccc(N2C[C@@H]3C[C@@](O)(c4ccc(F)cc4)C[C@@H]3C2)n1` [Example 87, 5-(4-fluorophenyl)-2-(6-methylpyridin-2-yl)-octahydrocyclopenta[c] pyrrol-5-ol] were, in that order, over 10 µM and 10 µM.
As to `O=C(CN1C[C@@H]2C[C@@](O)(Cc3ccccc3)C[C@@H]2C1)c1cnc(O)cn1` [Example 187, 2-((3aR,5r,6aS)-5-benzyl-5-hydroxyhexahydrocyclo-penta[c]pyrrol-2(1H)-yl)-1-(5-hydroxypyrazin-2-yl)ethanone], the IC50 at NR1/NR2B [1] (setting [3]) was over 10 µM; at NR1/NR2B [2] (setting [4]), 10 µM.
For `Cc1cc(C)cc(C[C@]2(O)C[C@H]3CN(CC(=O)c4ccc(O)cc4)C[C@H]3C2)c1` [Example 212, 2-[(3aR,5R,6aS)-5-[(3,5-dimethylphenyl)methyl]-5-hydroxy-octahydrocyclopenta[c]pyrrol-2-yl]-1-(4-hydroxyphenyl)ethan-1-one], the results for the IC50 against NR1/NR2B [1] (setting [3]) and at NR1/NR2B [2] (setting [4]) were over 10 µM and 10 µM, respectively.
Consider `O=C(CN1C[C@@H]2C[C@@](O)(Cc3ccccc3)C[C@@H]2C1)c1ccc(=O)[nH]n1` [Example 157, 6-(2-((3aR,5r,6aS)-5-benzyl-5-hydroxyhexahydrocyclo-penta[c]pyrrol-2(1H)-yl)acetyl)pyridazin-3(2H)-one], for which the IC50 against NR1/NR2B [1] (setting [3]) is over 10 µM; on NR1/NR2B [2] (setting [4]) it was 10 µM.
On the same counts, the results for `O=C(Nc1ccccc1)N1C[C@@H]2C[C@@](O)(Cc3ccccc3)C[C@@H]2C1` [Example 122, (3aR,5r,6aS)-5-benzyl-5-hydroxy-N-phenylhexahydrocyclo-penta[c]pyrrole-2(1H)-carboxamide] are over 10 µM and 10 µM.
Consider `Cc1ccccc1[C@]1(O)C[C@H]2CN(c3ccccn3)C[C@H]2C1` [Example 82, 5-(2-methylphenyl)-2-(pyridin-2-yl)-octahydrocyclopenta[c] pyrrol-5-ol], for which the IC50 against NR1/NR2B [1] (setting [3]) is over 10 µM; on NR1/NR2B [2] (setting [4]), 10 µM.
On the same counts, the results for `O=C(Nc1cccc(Cl)c1)N1C[C@H]2C[C@@H](c3ccccc3)C[C@H]2C1` [Example 106, N-(3-chlorophenyl)-5-phenyl-octahydrocyclopenta[c] pyrrole-2-carboxamide] are over 10 µM and 10 µM.
The like results for `O=C(Nc1cccnc1)N1C[C@H]2C[C@@H](c3ccccc3)C[C@H]2C1` [Example 111, 5-phenyl-N-(pyridin-3-yl)-octahydrocyclopenta[c] pyrrole-2-carboxamide] were, in that order, over 10 µM and 10 µM.
`CC(C)(C)c1ccc([C@]2(O)C[C@H]3CN(c4ccccn4)C[C@H]3C2)cc1` [Example 88, 5-(4-tert-butylphenyl)-2-(pyridin-2-yl)-octahydrocyclopenta[c] pyrrol-5-ol]: the IC50 at NR1/NR2B [1] (setting [3]) was over 10 µM; at NR1/NR2B [2] (setting [4]), 10 µM.
For `COc1ccc(C(=O)CN2C[C@@H]3C[C@@](O)(Cc4ccccc4)C[C@@H]3C2)cc1` [Example 132, 2-((3aR,5r,6aS)-5-benzyl-5-hydroxyhexahydrocyclo-penta[c]pyrrol-2(1H)-yl)-1-(4-methoxyphenyl)ethanone], the values for the IC50 against NR1/NR2B [1] (setting [3]) and on NR1/NR2B [2] (setting [4]) were over 10 µM and 10 µM, respectively.
On the same counts, the results for `N#Cc1cccc(NC(=O)N2C[C@H]3C[C@@H](c4ccccc4)C[C@H]3C2)c1` [Example 107, N-(3-cyanophenyl)-5-phenyl-octahydrocyclopenta[c] pyrrole-2-carboxamide] are over 10 µM and 10 µM.
On the same counts, the results for `C[C@@H](NC(=O)N1C[C@H]2C[C@@H](c3ccccc3)C[C@H]2C1)c1ccc(Cl)cc1` [Example 113, N-[(1R)-1-(4-chlorophenyl)ethyl]-5-phenyl-octahydrocyclopenta[c] pyrrole-2-carboxamide] are over 10 µM and 10 µM.
On the same counts, the results for `COc1cccc([C@]2(O)C[C@H]3CN(CC(=O)c4cccc(F)c4)C[C@H]3C2)c1` [Example 62, 1-(3-fluorophenyl)-2-[5-hydroxy-5-(3-methoxyphenyl)-octahydrocyclopenta[c]pyrrol-2-yl]ethan-1-one] are over 10 µM and 10 µM.
On to `O=C(Nc1ccc(F)cc1)N1C[C@H]2C[C@@H](c3ccccc3)C[C@H]2C1` [Example 101, N-(4-fluorophenyl)-5-phenyl-octahydrocylcopenta[c] pyrrole-2-carboxamide], for which the values for the IC50 against NR1/NR2B [1] (setting [3]) and at NR1/NR2B [2] (setting [4]) were over 10 µM and 10 µM, respectively.
The like results for `Cc1cccc(N2C[C@@H]3C[C@@](O)(c4ccccc4)C[C@@H]3C2)n1` [Example 85, 2-(6-methylpyridin-2-yl)-5-phenyl-octahydrocyclopenta[c] pyrrol-5-ol] were, in that order, over 10 µM and 10 µM.
On the same counts, the results for `COc1cccc(C[C@]2(O)C[C@H]3CN(CC(=O)c4ccc(O)cc4)C[C@H]3C2)c1` [Example 194, 2-((3aR,5r,6aS)-5-hydroxy-5-(3-meth-oxybenzyl)hexahydro-cyclopenta[c]pyrrol-2(1H)-yl)-1-(4-hydroxyphenyl)ethanone] are under 0.1 µM and 0.0981 µM.
On the same counts, the results for `COc1ccccc1NC(=O)N1C[C@@H]2C[C@@](O)(Cc3ccccc3)C[C@@H]2C1` [Example 128, (3aR,5r,6aS)-5-benzyl-5-hydroxy-N-(2-meth-oxyphenyl)hexahydro-cyclopenta[c]pyrrole-2(1H)-carboxamide] are over 10 µM and 10 µM.
On to `O=C1CCc2cc(C(=O)CN3C[C@@H]4C[C@@](O)(Cc5ccccc5)C[C@@H]4C3)ccc2N1` [Example 148, 6-(2-((3aR,5r,6aS)-5-benzyl-5-hydroxyhexahydrocyclo-penta[c]pyrrol-2(1H)-yl)acetyl)-3,4-dihydroquinolin-2(1H)-one], for which the IC50 is 0.1 to 1 µM against NR1/NR2B [1] (setting [3]) and 0.137 µM on NR1/NR2B [2] (setting [4]).
`O=C(Nc1ccc(F)cc1)N1C[C@@H]2C[C@@](O)(c3ccccc3)C[C@@H]2C1` [Example 6]: the IC50 was over 10 µM on NR1/NR2B [1] (setting [3]) and 10 µM at NR1/NR2B [2] (setting [4]).
With `O=C(CN1C[C@@H]2C[C@@](O)(Cc3ccccc3Cl)C[C@@H]2C1)c1ccc(O)cn1` [Example 234, 2-((3aR,5r,6aS)-5-(2-chlorobenzyl)-5-hydroxyhexahydrocyclo-penta[c]pyrrol-2(1H)-yl)-1(5-hydroxypyridin-2-yl)ethanone], the IC50 at NR1/NR2B [1] (setting [3]) is 1 to 10 µM; on NR1/NR2B [2] (setting [4]), 1.99 µM.
On the same counts, the results for `O=C(CN1C[C@@H]2C[C@@](O)(Cc3ccccc3)C[C@@H]2C1)c1ccc(-c2cccc(F)c2)cc1` [Example 261, 2-((3aR,5r,6aS)-5-benzyl-5-hydroxyhexahydrocyclo-penta[c]pyrrol-2(1H)-yl)-1-(3′-fluoro-[1,1′-biphenyl]-4-yl)ethanone] are over 10 µM and 10 µM.
